ChEMBL document CHEMBL3784975 (Bioorg Med Chem Lett, 2016)

Key:
HeLa = assay: Cytotoxicity against human HeLa cells after 24 hrs by [3H]-thymidine incorporation assay; type: functional, cell-based
[1] = Cytotoxicity against human IGROV cells after 48 hrs by crystal violet staining based assay; type: functional, cell-based
[2] = Cytotoxicity against human CLL cells after 24 hrs by annexin-V/PI staining based flow cytometry; type: functional, cell-based
[3] = Cytotoxicity against human SJSA1 cells after 48 hrs by crystal violet staining based assay; type: functional, cell-based; conditions: SJSA-1, 48 h
[4] = Cytotoxicity against human A3 cells after 48 hrs by crystal violet staining based assay; type: functional, cell-based; conditions: A3, 48 h
A-431 = assay: Cytotoxicity against human A431 cells after 48 hrs by crystal violet staining based assay; type: functional, cell-based; conditions: A-431, 48 h
[5] = Cytotoxicity against human […] cells after 48 hrs by crystal violet staining based assay; type: functional, cell-based
[6] = Half life of compound in water at 25 deg C; type: physicochemical
[7] = Cytotoxicity against human CLL cells after 24 hrs by annexin-V/PI staining based flow cytometry in presence of human plasma protein; type: functional, cell-based
[8] = Cytotoxicity against human CLL cells after 24 hrs by annexin-V/PI staining based flow cytometry in presence of fetal bovine serum; type: functional, cell-based
[9] = Cytotoxicity against human B cells assessed as cell viability after 24 hrs by annexin V/propidium iodide staining based flow cytometric analysis
[10] = Cytotoxicity against human T cells assessed as cell viability after 24 hrs by annexin V/propidium iodide staining based flow cytometric analysis
[11] = Plasma protein binding in human by liquid chromatography-mass spectrometric analysis; type: ADME, cell-free
Plasma = assay: Metabolic stability in human plasma assessed as drug recovery; type: ADME, cell-free
[12] = Half life of compound at pH 5; type: physicochemical

| Structure (SMILES) | IC50 (HeLa) [µM] | IC50 [2] [µM] | also measured |
| --- | --- | --- | --- |
| Cc1ccn2c1C(=O)N[C@@H]1[C@H]2C[C@]2(O)[C@H]1NC(=O)N2C | > 20 | – | – |
| Cc1ccc2n1[C@@H]1C[C@]3(O)[C@@H](NC(=O)N3C)[C@@H]1NC2=O | > 20 | 9.77 | IC50 [1]: 0.31 µM; IC50 [3]: > 1 µM; IC50 [4]: > 1 µM; IC50 (A-431): > 1 µM; IC50 [5]: 0.28 µM |
| CN1C(=O)N[C@H]2[C@@H]3NC(=O)c4c(Br)c(Br)c(Br)n4[C@@H]3C[C@]21O | > 20 | > 10 | – |
| CC(=O)CCO[C@@]12C[C@@H]3[C@@H](NC(=O)c4ccc(Br)n43)[C@@H]1NC(=O)N2C | 1.72 | 5.74 | half-life [6]: 16 h |
| CN1C(=O)N[C@H]2[C@@H]3NC(=O)c4cc(Br)c(Br)n4[C@@H]3C[C@]21O | 7.85 | > 30 | IC50 [1]: > 1 µM; IC50 [3]: > 1 µM; IC50 [4]: > 1 µM; IC50 (A-431): > 1 µM; IC50 [5]: > 1 µM |
| CN1C(=O)N[C@H]2[C@@H]3NC(=O)c4ccc(Br)n4[C@@H]3C[C@]21O [AGELASTATIN A] | 0.084 | 0.71 | IC50 [1]: 0.17 µM; IC50 [3]: 0.44 µM; IC50 [4]: 0.38 µM; IC50 (A-431): 0.46 µM; IC50 [5]: 0.32 µM; IC50 [7]: 0.71 µM; IC50 [8]: 0.93 µM; Activity [9]: Toxic; Activity [10]: Toxic |
| Cc1c(Br)c(Br)n2c1C(=O)N[C@@H]1[C@H]2C[C@]2(O)[C@H]1NC(=O)N2C | > 20 | – | – |
| CN1C(=O)N[C@H]2[C@@H]3NC(=O)c4ccc(Br)n4[C@@H]3C[C@]21OCCCc1cn(CCCC(=O)NCc2ccccc2)nn1 | > 20 | > 10 | – |
| CC(=O)c1cc2n(c1Br)[C@@H]1C[C@]3(O)[C@@H](NC(=O)N3C)[C@@H]1NC2=O | > 20 | > 10 | – |
| CN1C(=O)N[C@H]2[C@@H]3NC(=O)c4cc(Cl)c(Br)n4[C@@H]3C[C@]21O | – | 2.82 | IC50 [1]: 0.26 µM; IC50 [3]: 0.56 µM; IC50 [4]: 0.47 µM; IC50 (A-431): 0.34 µM; IC50 [5]: 0.54 µM; IC50 [7]: 2.82 µM; IC50 [8]: 2.65 µM; PPB [11]: 46.5%; Drug recovery (Plasma): 102.1%; Activity [9]: Toxic; Activity [10]: Toxic |
| Cc1cc2n(c1Br)[C@@H]1C[C@]3(O)[C@@H](NC(=O)N3C)[C@@H]1NC2=O | 4.53 | 7.12 | – |
| CN1C(=O)N[C@H]2[C@@H]3NC(=O)c4cc(I)c(Br)n4[C@@H]3C[C@]21O | > 20 | – | – |
| CN1C(=O)N[C@H]2[C@@H]3NC(=O)c4ccc(Br)n4[C@@H]3C[C@]21N | 17 | > 30 | t1/2 [12]: 170 h |
| C#CCCCO[C@@]12C[C@@H]3[C@@H](NC(=O)c4ccc(Br)n43)[C@@H]1NC(=O)N2C | > 20 | > 10 | – |
| CN1C(=O)N[C@H]2[C@@H]3NC(=O)c4cc(C#Cc5ccccc5)c(Br)n4[C@@H]3C[C@]21O | > 20 | > 10 | – |
| CN1C(=O)N[C@H]2[C@@H]3NC(=O)c4cc(-c5ccccc5)c(Br)n4[C@@H]3C[C@]21O | > 20 | > 10 | – |
| CN1C(=O)N[C@H]2[C@@H]3NC(=O)c4cc(-c5ccccc5)c(-c5ccccc5)n4[C@@H]3C[C@]21O | > 20 | > 10 | – |
| CN1C(=O)c2ccc(Br)n2[C@@H]2C[C@]3(O)[C@@H](NC(=O)N3C)[C@@H]21 (racemic) | > 20 | – | – |
| Cc1c(C)c2n(c1Br)[C@@H]1C[C@]3(O)[C@@H](NC(=O)N3C)[C@@H]1NC2=O | > 20 | – | – |
